From patent US10912763B2 (priority 2010, dated 2021)

Test: Pharmacological activity of the decomposition product

Fc1ccc2[nH]c3c(c2c1)CCOC31CC=C(c2ccccc2)CC1 (stereo not shown) [6′-fluoro-4-phenyl-4′,9′-dihydro-3′H-spiro[cyclohex-3-ene-1,1′-pyrano[3,4-b]indole]]
Pharmacological activity: pharmacologically inactive
